In patent US20240317755A1, “HETEROCYCLIC COMPOUND, AND INTERMEDIATE THEREOF, PREPARATION METHOD THEREFOR AND USE THEREOF” (WUHAN LL SCIENCE AND TECHNOLOGY DEVELOPMENT CO., LTD., priority 2021, published 2024):
Where two headings read alike, the source gives them in different places.

Tests used:
[1] = Liver microsome half-life assay, monkey; type: in vitro ADME; details: liver microsomes, 1 mg/mL liver microsomal protein, 37° C., read-out: Liver microsome T½ (min) Monkey
Experimental: (§1) The in vitro metabolic stability of the compounds of the present disclosure was determined using warm incubation method of liver microsomes in various species. A proper amount of test compound was added to the liver microsomal reaction system (1 mg/mL liver microsomal protein, 25 U/mL glucose-6-phosphate dehydrogenase, 1 mM NADP, 6 mM D-glucose 6-phosphate, 5 mM MgCl2), and the reaction was started by warm incubation in a water bath at 37° C., then 100 μL of the reaction mixture at each time point was added to a centrifuge tube containing 400 μL of internal standard working solution precooled at 0° C. (containing a solution of 200 ng/mL dexamethasone, diclofenac, tolbutamide, and labetalol in acetonitrile), then the reaction was terminated, centrifuged at 4° C. and 10,000 g for 10 min, and the supernatant was taken into LC-MS for analysis and detection to obtain in vitro metabolic half-lives of the test compounds in liver microsomes of various species.

[2] = Liver microsome half-life assay, mouse; type: in vitro ADME; details: liver microsomes, 1 mg/mL liver microsomal protein, 37° C., read-out: Liver microsome T½ (min) Mouse
Experimental: as §1

TRPC5 channel = TRPC5 channel (Homo sapiens (Human), UniProt Q9UL62); test: TRPC5 calcium flux assay (Fluo-4, FLIPR) in TRPC5-HEK 293 cells; type: cell-based; details: 0.3 nM Englerin A
Experimental: TRPC5 is a type of non-selective cation channel with permeability to calcium ions. […] Fluo-4 AM fluorescence dye was used to indirectly reflect the effect of the compound on TRPC5 channel by detecting intracellular Ca^2+ in TRPC5-HEK 293 cells.
• Revival solution: 100% high glucose DMEM • Selection medium: high glucose DMEM+10% FBS+1% P/S+1% HEPES+Blasticidin (5 μg/mL)+Hygromycine (50 μg/mL) • Induction medium: high glucose DMEM+10% FBS+1% P/S+1% HEPES+Doxycycline (1 μg/mL)
(§2) 14 hours before the real-time fluorescence experiment, cells were washed with PBS and digested with trypsin-EDTA. Cells were diluted to 200,000 cells/mL with induction medium and seeded onto a 96-well black wall bottom transparent plate coated with poly-D-lysine (PDL) (stock solution of 10 mg/mL, final concentration of 10 μg/mL) at 100 μL/well, i.e., 20,000 cells/well.
500 mL of external solution for detecting TRPC5 calcium signals: 4.0908 g of NaCl, 0.1864 g of KCl, 0.111 g of CaCl2, 0.0476 g of MgCl2, 0.9 g of glucose, 1.1915 g of HEPES (2-[4-(2-hydroxyethyl)piperazin-1-yl]ethanesulfonic acid).
Calcium fluorescent dye: an external solution for detecting TRPC5 calcium signals containing Fluo-4 with a final concentration of 4 μM (containing 0.5% BSA)
Positive inhibitor concentration: 100 nM
The dose-effect diagram was used to calculate AUC (area under the curve of the curve formed by the calcium flux signal), and the data and the log of the compound concentration were collected. The IC50 value was calculated using log[Inhibitor] vs. response Variable slope.
TRPC5 is a type of non-selective cation channel with permeability to calcium ions. […] Fluo-4 AM fluorescence dye was used to indirectly reflect the effect of the compound on TRPC5 channel by detecting intracellular […] in TRPC5-HEK 293 cells.
1. Cell culture 1.1 Revival of TRPC5-HEK 293 cells • Revival solution: 100% high glucose DMEM • Selection medium: high glucose DMEM+10% FBS+1% P/S+1% HEPES+Blasticidin (5 μg/mL)+Hygromycine (50 μg/mL) • Induction medium: high glucose DMEM+10% FBS+1% P/S+1% HEPES+Doxycycline (1 μg/mL)
as §2, with “trypsin-EDTA (TE).” for “trypsin-EDTA.”

[3] = Liver microsome half-life assay, rat; type: in vitro ADME; details: liver microsomes, 1 mg/mL liver microsomal protein, 37° C., read-out: Liver microsome T½ (min) Rat
Experimental: as §1

[4] = Liver microsome half-life assay, human; type: in vitro ADME; details: human, liver microsomes; 1 mg/mL liver microsomal protein, 37° C.; read-out: Liver microsome T½ (min) Human
Experimental: as §1

TRPC5 channel, sequence (Q9UL62 whole entry): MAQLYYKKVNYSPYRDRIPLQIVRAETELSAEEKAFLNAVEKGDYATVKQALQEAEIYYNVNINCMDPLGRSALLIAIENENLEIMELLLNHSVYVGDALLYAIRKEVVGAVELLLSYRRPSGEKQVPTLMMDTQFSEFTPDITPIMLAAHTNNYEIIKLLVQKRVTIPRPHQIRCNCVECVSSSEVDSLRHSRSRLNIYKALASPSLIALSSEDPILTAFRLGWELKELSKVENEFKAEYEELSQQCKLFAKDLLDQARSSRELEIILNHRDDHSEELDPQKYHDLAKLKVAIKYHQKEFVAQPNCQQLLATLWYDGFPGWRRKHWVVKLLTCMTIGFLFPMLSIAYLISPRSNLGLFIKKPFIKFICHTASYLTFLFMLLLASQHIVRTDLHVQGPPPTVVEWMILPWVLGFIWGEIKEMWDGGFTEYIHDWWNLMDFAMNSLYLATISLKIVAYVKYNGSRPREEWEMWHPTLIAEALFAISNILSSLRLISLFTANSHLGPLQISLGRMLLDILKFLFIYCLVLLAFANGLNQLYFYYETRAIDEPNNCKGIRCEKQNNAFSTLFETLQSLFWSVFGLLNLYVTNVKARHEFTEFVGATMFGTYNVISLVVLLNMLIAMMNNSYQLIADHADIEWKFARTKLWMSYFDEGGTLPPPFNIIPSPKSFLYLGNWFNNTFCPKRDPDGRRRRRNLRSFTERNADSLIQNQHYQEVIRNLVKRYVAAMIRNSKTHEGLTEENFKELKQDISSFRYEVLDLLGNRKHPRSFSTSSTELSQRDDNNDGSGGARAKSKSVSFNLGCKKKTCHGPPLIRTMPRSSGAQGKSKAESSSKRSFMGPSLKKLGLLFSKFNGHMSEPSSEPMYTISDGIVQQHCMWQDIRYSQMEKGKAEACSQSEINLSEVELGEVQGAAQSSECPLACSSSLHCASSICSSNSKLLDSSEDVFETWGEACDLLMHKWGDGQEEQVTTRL

Molecule `O=C(c1ccc(F)cc1C(F)(F)F)c1cnc2n1CCN(c1cn[nH]c(=O)c1Cl)C2` [Compound 1-6, 4-chloro-5-(3-(4-fluoro-2-(trifluoromethyl)benzoyl)-5,6-dihydroimidazo[1,2-a]pyrazin-7(8H)-yl)pyridazin-3(2H)-one] has a half-life [1] of 247 min, a half-life [2] of 78 min and an IC50 (TRPC5 channel; Table 1, read-out: TRPC5 inhibitory activity, IC50) of 11.5 nM. For the same molecule, the IC50 (TRPC5 channel; Table 11, read-out: TRPC5 inhibitory activity, IC50) was 11.5 nM, the half-life [3] was 174 min and the half-life [4] was 531 min.
